Data reported in patent US5789434A, “Derivatives of substituted 4-biarylbutyric acid as matrix metalloprotease inhibitors” (priority 1995, dated 1998).

What was measured:
[1] = biological target: T1, MMP-3 (Homo sapiens, UniProt P08254); assay: Primary Thiopeptilide MMP-3 Inhibition Assay; assay type: biochemical; details: for IC50: pH 6.5, 13 nM stromelysin, x (n) = average of n determinations, read-out: MMP-3 Thiopep. IC50; for inhibition at 5 µM: read-out: MMP-3 Thiopep. % inhibition
T1 construct: Truncated Prostromelysin-257 was expressed in a soluble form in E.coli; made in house; host or cells: E. coli
Description: Enzyme: recombinant stromelysin expressed in E.coli and purified as described above. […] The protocols for the assay of compounds as stromelysin inhibitors was the same as that used for MMP-9 except that the assay buffer was 50 mM MES, pH 6.5 containing 150 mM NaCl, 10 mM CaCl2, 0.005% Brij, and 1% DMSO.

[2] = biological target: T2, MMP-9 (Homo sapiens, UniProt P14780); assay: Thiopeptilide MMP-9 Inhibition Assay; assay type: biochemical; details: for IC50: pH 6.5, x (n) = average of n determinations, read-out: MMP-9: Thiopep. IC50; for inhibition at 5 µM: read-out: MMP-9: Thiopep. % inhibition
T2 construct: from tissue; host or cells: human polymorphonuclear leukocytes (PMN) from whole blood (New York Blood Center), PMA-stimulated supernatant
T2 sequence (P14780 107-707 limits assumed): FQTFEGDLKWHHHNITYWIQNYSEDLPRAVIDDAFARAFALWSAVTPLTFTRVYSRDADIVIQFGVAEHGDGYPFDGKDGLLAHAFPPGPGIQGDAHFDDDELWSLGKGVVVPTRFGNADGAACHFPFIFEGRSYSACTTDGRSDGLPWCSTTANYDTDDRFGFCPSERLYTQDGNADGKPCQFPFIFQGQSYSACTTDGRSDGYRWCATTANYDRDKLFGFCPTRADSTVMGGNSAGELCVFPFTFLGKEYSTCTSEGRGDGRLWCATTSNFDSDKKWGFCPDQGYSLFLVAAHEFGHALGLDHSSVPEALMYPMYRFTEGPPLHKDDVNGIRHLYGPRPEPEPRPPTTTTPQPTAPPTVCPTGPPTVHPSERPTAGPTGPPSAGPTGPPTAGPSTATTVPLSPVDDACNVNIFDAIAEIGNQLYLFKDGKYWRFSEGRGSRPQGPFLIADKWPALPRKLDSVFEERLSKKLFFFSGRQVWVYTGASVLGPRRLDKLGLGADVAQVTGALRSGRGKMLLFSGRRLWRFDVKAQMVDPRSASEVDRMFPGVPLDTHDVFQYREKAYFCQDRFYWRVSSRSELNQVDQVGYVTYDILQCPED

T1 sequence (P08254 100-274 limits assumed): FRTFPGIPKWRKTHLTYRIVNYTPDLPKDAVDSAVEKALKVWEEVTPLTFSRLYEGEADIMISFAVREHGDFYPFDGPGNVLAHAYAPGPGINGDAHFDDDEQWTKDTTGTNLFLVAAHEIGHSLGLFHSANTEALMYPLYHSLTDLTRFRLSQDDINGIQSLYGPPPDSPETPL

Structure (SMILES)	IC50 [1] [nM]	IC50 [2] [nM]	inhibition at 5 µM [1] [%]	inhibition at 5 µM [2] [%]
Cc1ccccc1S[C@H]1CC[C@H](C(=O)c2ccc(-c3ccc(Cl)cc3)cc2)[C@H]1C(=O)O (relative stereo) [Example 306, Cyclopentanecarboxylic acid, 2-[(4'-chloro[1,1'-biphenyl]-4-yl)carbonyl]-5-[(2-methylphenyl)thio]-, (1α,2β,5α)-]	150	550	–	–
CC(C)CC(CC(=O)c1ccc(-c2ccc(C#N)cc2)cc1)C(=O)O (stereo not drawn) [Example 46, [1,1'-Biphenyl]-4-butanoic acid, 4'-cyano-α-(2-methylpropyl)-γ-oxo-]	700	4000	–	–
CCc1ccccc1SCC(CC(=O)c1ccc(-c2ccc(Cl)cc2)cc1)C(=O)O (stereo not drawn) [Example 220, [1,1'-Biphenyl]-4-butanoic acid, 4'-chloro-α-[[(2-ethylphenyl)thio]methyl]-γ-oxo-]	190	950	–	–
CC(C)C[C@H](CC(=O)c1ccc(-c2ccc(Cl)cc2)cc1)C(=O)O [Example 3, [1,1'-Biphenyl]-4-butanoic acid, 4'-chloro-α-(2-methylpropyl)-γ-oxo-, (R)-]	–	–	13	0
O=C(O)CCC(=O)c1ccc(-c2ccc(F)cc2F)cc1 [Example 11, [1,1'-Biphenyl]-4-butanoic acid, 2',4'-difluoro-γ-oxo-, reference compound]	–	–	14	0
N#Cc1ccc(-c2ccc(C(=O)CC(CCCc3ccccc3)C(=O)O)cc2)cc1 (stereo not drawn) [Example 56, [1,1'-Biphenyl]-4-butanoic acid, 4'-cyano-γ-oxo-α-(3-phenylpropyl)-]	310	700	–	–
CCCOc1ccc(-c2ccc(C(=O)CC(CCCc3ccccc3)C(=O)O)cc2)cc1 (stereo not drawn) [Example 84, [1,1'-Biphenyl]-4-butanoic acid, γ-oxo-α-(3-phenylpropyl)-4'-propoxy-]	150	100	–	–
O=C(O)c1ccccc1C(=O)c1ccc(-c2ccc(Cl)cc2)cc1 [Example 287, Benzoic acid, 2-[(4'-chloro[1,1'-biphenyl]-4-yl)carbonyl]-]	–	–	26	3
O=C(C[C@H](CCCc1ccccc1)C(=O)O)c1ccc(-c2ccc(Br)cc2)cc1 [Example 178, [1,1'-Biphenyl]-4-butanoic acid, 4'-bromo-γ-oxo-α-(3-phenylpropyl)-, (S)-]	150	240	–	–
CC(C)CC(CC(=O)c1ccc(-c2ccc(F)cc2F)cc1)C(=O)O (stereo not drawn) [Example 20, [1,1'-Biphenyl]-4-butanoic acid, 2',4'-difluoro-α-(2-methylpropyl)-γ-oxo-]	–	–	32	34
CCCCCCCOc1ccc(-c2ccc(C(=O)CC(CCCc3ccccc3)C(=O)O)cc2)cc1 (stereo not drawn) [Example 92, [1,1'-Biphenyl]-4-butanoic acid, 4'-(heptyloxy)-γ-oxo-α-(3-phenylpropyl)-]	–	–	60	26
C=C(CC(=O)c1ccc(-c2ccc(Cl)cc2)cc1)C(=O)O [Example 23, [1,1'-Biphenyl]-4-butanoic acid, 4'-chloro-α-methylene-γ-oxo-, reference compound]	–	–	24	0
O=C(CC(CSc1cccs1)C(=O)O)c1ccc(-c2ccc(Cl)cc2)cc1 (stereo not drawn) [Example 199, [1,1'-Biphenyl]-4-butanoic acid, 4'-chloro-γ-oxo-α-[(2-thienylthio)methyl]-]	170	200	–	–
O=C(CC(CCCc1ccccc1)C(=O)O)c1ccc(-c2ccc(Cl)s2)cc1 (stereo not drawn) [Example 68, Benzenepentanoic acid, α-[2-[4-(5-chloro-2-thienyl)phenyl]-2-oxoethyl]-]	280	300	–	–
O=C(CC(C/C=C/c1ccccc1)C(=O)O)c1ccc(-c2ccc(Cl)cc2)cc1 (stereo not drawn) [Example 183, [1,1'-Biphenyl]-4-butanoic acid, 4'-chloro-γ-oxo-α-(3-phenyl-2-propenyl)-, (E)-]	270	710	–	–
O=C(O)CCC1(C(=O)c2ccc(-c3ccc(Cl)cc3)cc2)CCCC1 [Example 340, Cyclopentanepropanoic acid, 1-[(4'-chloro[1,1'-biphenyl]-4-yl)carbonyl]-]	–	–	14	21
O=C(CC(CCCc1ccccc1)C(=O)O)c1ccc(-c2ccc(Cl)c(Cl)c2)cc1 (stereo not drawn) [Example 65, [1,1'-Biphenyl]-4-butanoic acid, 3',4'-dichloro-γ-oxo-α-(3-phenylpropyl)-]	840	–	–	47
O=C(CC(CCCc1ccccc1)C(=O)O)c1ccc(-c2ccc(OCCO)cc2)cc1 (stereo not drawn) [Example 54, [1,1'-Biphenyl]-4-butanoic acid, 4'-(2-hydroxyethoxy)-γ-oxo-α-(3-phenylpropyl)-]	190	700	–	–

Structure (SMILES)	IC50 [1] [nM]	IC50 [2] [nM]	inhibition at 5 µM [1] [%]	inhibition at 5 µM [2] [%]
CC(C)SCC(CC(=O)c1ccc(-c2ccc(Cl)cc2)cc1)C(=O)O (stereo not drawn) [Example 239, [1,1'-Biphenyl]-4-butanoic acid, 4'-chloro-α-[[(1-methylethyl)thio]methyl]-γ-oxo-]	490	–	–	53
O=C(CC(CCCc1ccccc1)C(=O)O)c1ccc(-c2ccc(I)cc2)cc1 (stereo not drawn) [Example 40, [1,1'-Biphenyl]-4-butanoic acid, 4'-iodo-γ-oxo-α-(3-phenylpropyl)-]	121	50	–	–
CC(C)(CC(=O)c1ccc(-c2ccc(Cl)cc2)cc1)C(=O)O [Example 282, [1,1'-Biphenyl]-4-butanoic acid, 4'-chloro-α,α-dimethyl-γ-oxo-]	–	–	2	0
CC(C)CC(CC(=O)c1ccc(-c2ccccc2F)cc1)C(=O)O (stereo not drawn) [Example 17, [1,1'-Biphenyl]-4-butanoic acid, 2'-fluoro-α-(2-methylpropyl)-γ-oxo-]	–	–	35	0
CCCCCCOc1ccc(-c2ccc(C(=O)CC(CCCc3ccccc3)C(=O)O)cc2)cc1 (stereo not drawn) [Example 88, [1,1'-Biphenyl]-4-butanoic acid, 4'-(hexyloxy)γ-oxo-α-(3-phenylpropyl)-]	168	–	–	30
O=C(O)CC(CSc1ccccc1)C(=O)c1ccc(-c2ccc(Cl)cc2)cc1 (stereo not drawn) [Example 257, [1,1'-Biphenyl]-4-butanoic acid, 4'-chloro-γ-oxo-β-[(phenylthio)methyl]-]	800	2100	–	–
CC1=CC[C@@H](C(=O)c2ccc(-c3ccc(Cl)cc3)cc2)[C@H](C(=O)O)C1 (relative stereo) [Example 329, 3-Cyclohexene-1-carboxylic acid, 6-[(4'-chloro[1,1'-biphenyl]-4-yl)carbonyl]-3-methyl-, trans-]	–	8000	58	–
CSCCCC(CC(=O)c1ccc(-c2ccc(Cl)cc2)cc1)C(=O)O (stereo not drawn) [Example 266, [1,1'-Biphenyl]-4-butanoic acid, 4'-chloro-α-[3-(methylthio)propyl]-γ-oxo-]	250	650	–	–
O=C(O)CCC(CCCc1ccccc1)C(=O)c1ccc(-c2ccc(Cl)cc2)cc1 (stereo not drawn) [Example 343, [1,1'-Biphenyl]-4-pentanoic acid, 4'-chloro-δ-oxo-γ-(phenylpropyl)-]	500	680	–	–
O=C(O)[C@@H]1CC=CC[C@H]1C(=O)c1ccc(-c2ccc(Cl)cc2)cc1 (relative stereo) [Example 328, 3-Cyclohexene-1-carboxylic acid, 6-[(4'-chloro[1,1'-biphenyl]-4-yl)carbonyl]-, trans-]	–	–	49	45
O=C(CC(CCCCCCc1ccccc1)C(=O)O)c1ccc(-c2ccc(Cl)cc2)cc1 (stereo not drawn) [Example 181, [1,1'-Biphenyl]-4-butanoic acid, 4'-chloro-γ-oxo-α-(6-phenylhexyl)-]	330	290	–	–
CNC(=O)[C@@H]1CCCN1C(=O)C(CC(=O)c1ccc(-c2ccc(Cl)cc2)cc1)CC(C)C (stereo partly drawn) [Example 346, 2-Pyrrolidinecarboxamide, 1-[2-[2-(4'-chloro[1,1'-biphenyl]-4-yl)-2-oxoethyl]-4-metyl-1-oxopentyl]-N-methyl-, (2S)-]	6000	–	–	34
C[C@@H](C(=O)O)[C@@H](C)C(=O)c1ccc(-c2ccc(Cl)cc2)cc1 (relative stereo) [Example 283, [1,1'-Biphenyl]-4-butanoic acid, 4'-chloro-α,β-dimethyl-γ-oxo-, (R*,R*)-]	2400	7000	–	–
Nc1ccc(-c2ccc(C(=O)CC(CCCc3ccccc3)C(=O)O)cc2)cc1 (stereo not drawn) [Example 58, [1,1'-Biphenyl]-4-butanoic acid, 4'-amino-γ-oxo-α-(3-phenylpropyl)-]	1200	1500	–	–
CCCCC(CC(=O)c1ccc(-c2ccc(Cl)cc2)cc1)C(=O)O (stereo not drawn) [Example 120, [1,1'-Biphenyl]-4-butanoic acid, α-butyl-4'-chloro-γ-oxo-]	380	–	–	60
C=CCC(CC(=O)c1ccc(-c2ccc(Cl)cc2)cc1)C(=O)O (stereo not drawn) [Example 119, [1,1'-Biphenyl]-4-butanoic acid, 4'-chloro-γ-oxo-α-2-propenyl-]	760	1800	–	–
Cc1ccccc1S[C@H]1CC[C@@H](C(=O)c2ccc(-c3ccc(Cl)cc3)cc2)[C@H]1C(=O)O (relative stereo) [Example 305, Cyclopentanecarboxylic acid, 2-[(4'-chloro[1,1'-biphenyl]-4-yl)carbonyl]-5-[(2-methylphenyl)thio]-, (1α,2α,5α)-]	470	1800	–	–
C=C(CC(=O)c1ccc(-c2ccccc2Cl)cc1)C(=O)O [Example 24, [1,1'-Biphenyl]-4-butanoic acid, 2'-chloro-α-methylene-γ-oxo-, reference compound]	–	–	40	0
